Assay results reported in ChEMBL document CHEMBL5120790, “Secondary Metabolites from Annulohypoxylon sp. and Structural Revision of Emericellins A and B” (2022).

Legend:
Format in all cases: functional
Staphylococcus aureus = experiment: Antibacterial activity against Staphylococcus aureus assessed as reduction in microbial growth after 24 hrs by two-fold dilution method
Escherichia coli = experiment: Antibacterial activity against Escherichia coli assessed as reduction in microbial growth after 24 hrs by two-fold dilution method
Candida albicans = experiment: Antifungal activity against Candida albicans assessed as reduction in microbial growth after 3 days by two-fold dilution method
Bacillus subtilis = experiment: Antibacterial activity against Bacillus subtilis assessed as reduction in microbial growth after 24 hrs by two-fold dilution method

Molecule	MIC (Staphylococcus aureus) [µg/mL]	MIC (Escherichia coli) [µg/mL]	MIC (Candida albicans; 72 h, time 3 day) [µg/mL]	MIC (Bacillus subtilis) [µg/mL]	MIC (Candida albicans; time 3.0 day) [µg/mL]
C[C@@]12CC[C@@](O)(CO)[C@@H](C1)[C@@]1(C)CCC[C@@]21C	64	64	> 256	64	–
C/C=C/C[C@H](CO)[C@H](O)[C@H](C)O	> 256	> 256	64	> 256	–
C[C@@]12CC[C@@](O)(CO)[C@@H](C1)[C@]1(C)C[C@@H](O)C[C@]21C	32	4	> 256	32	–
NC[C@H]1O[C@H](O[C@H]2[C@H](O)[C@@H](O[C@H]3O[C@H](CO)[C@@H](O)[C@H](N)[C@H]3O)[C@H](N)C[C@@H]2N)[C@H](O)[C@@H](O)[C@@H]1O [KANAMYCIN]	1	1	–	1	–
COc1cc2c(c(O)c1OC)CO[C@](C)(O)C2=O	> 256	> 256	32	> 256	–
NYSTATIN	–	–	–	–	1
C[C@H](C[C@@H](O)[C@H](O)C(C)(C)O)[C@H]1CC[C@@](C)(O)[C@@H](O)C1	64	64	> 256	64	–
C[C@@]12CC[C@@](O)(CO)[C@@H](C1)[C@]1(C)CCC[C@]21C	64	64	> 256	32	–
C[C@@]12CC=C(CO)[C@@H](C1)[C@]1(C)CCC[C@]21C	32	64	> 256	32	–
CC[C@H](O)[C@H](O)C[C@H](C)O	> 256	> 256	64	> 256	–
C[C@]12CCC[C@@]1(C)[C@@H]1C[C@@]2(C)[C@H](O)C[C@@]1(O)CO	32	2	> 256	16	–
